Measured values published in ChEMBL document CHEMBL1138327, “Metal-based paullones as putative CDK inhibitors for antitumor chemotherapy” (2007).

What was measured:
Assay type in all cases: functional
[1] = tested on: A549; test: Cell cycle arrest in human A549 cells assessed as accumulation at G0/G1 phase at 30 nM after 24 hrs by flow cytometry
[2] = tested on: A549; test: Cell cycle arrest in human A549 cells assessed as accumulation at S phase at 30 nM after 24 hrs by flow cytometry
[3] = tested on: A549; test: Cell cycle arrest in human A549 cells assessed as accumulation at G2/M phase at 30 nM after 24 hrs by flow cytometry

Work on `CN[C@@H]1C[C@H]2O[C@@](C)([C@@H]1OC)n1c3ccccc3c3c4c(c5c6ccccc6n2c5c31)C(=O)NC4` [STAUROSPORINE] yielded an Activity [1] of 74.6%, an Activity [2] of 16.4% and an Activity [3] of 9.1%.
